Legend:
[1] = Autoclave test of transference of the chemical from liquid water phase to steam phase at 200° C. (gas chromatography); assay type: physicochemical; details: autoclave 200° C.; for Conc. of chemical in water / Conc. of chemical in steam: 200 mg/liter aqueous solution, pH 11.5 with sodium hydroxide; for Conc. of chemical in water: liquid phase sample; for Conc. of chemical in steam: steam phase sample
Experimental: Each 50 ml of samples were taken from the steam phase and from the liquid phase directly after the temperature had reached at 200° C., which were analyzed for the concentration of the chemical on a gas chromatography. The ratio of the concentration of chemical in the steam phase versus the concentration of chemical in the liquid phase was calculated.

[2] = Removal of dissolved oxygen by potassium erysorbate at 60° C., 10 minutes; details: 100 mg potassium erysorbate per liter, pH of test soln. as in row (6.5-10.5)
Experimental: In a constant temperature bath held at 60° C., one liter of deionized water of a pH of 6.5 was stirred for one hour so as to saturate it with atmospheric oxygen and the oxygen concentration was measured by a dissolved oxygen meter (MOCA 3600 of the firm Orbisphere Laboratories). 100 mg of potassium erysorbate were added to the water and the mixture was agitated sufficiently, before the solution was poured into a 200 ml incubation bottle to fill it completely therewith, whereupon a closure stopper was fitted into the bottle so as to exclude any rest of gas space therein and the bottle was returned to the constant temperature bath of 60° C. to subject the solution to reaction for 10 minutes. After 10 minutes, the bottle was taken out of the bath and the dissolved oxygen concentration therein was detected by the dissolved oxygen meter. The rate of removal of dissolved oxygen is calculated from the proportion of the dissolved oxygen concentration after the addition of potassium erysorbate versus the dissolved oxygen concentration before the addition of potassium erysorbate (Comparative Example 15).
Test solutions were prepared from each one liter of deionized water by adjusting the pH thereof at 7.5, 9.0 and 10.5, respectively, by adding sodium hydroxide thereto as alkali reagent. […]

| Structure (SMILES) | Conc. of chemical in water [1] [µg/mL] | Conc. of chemical in steam [1] [µg/mL] | Conc. ratio Cs/Cw (concentration in the steam phase/concentration in liquid water phase) ([1]; pH 11.5) | Transference from the liquid water phase to the steam phase [1] | Converted into gluconic acid (with some decomposition into other compounds) ([1]; liquid water phase, pH 11.5) | Rate of O2 remov. [2] [%] |
| --- | --- | --- | --- | --- | --- | --- |
| CCCCCC1CCC(=O)O1 (stereo not drawn) [Example 1, γ-nonalactone] | 188 | 207 | 1.10 | – | – | – |
| CCCCCCC1CCC(=O)O1 (stereo not drawn) [Example 2, γ-decalactone] | 187 | 120 | 0.64 | – | – | – |
| O=C1O[C@H](CO)[C@@H](O)[C@H](O)[C@H]1O [compound 1, glucono-δ-lactone, reference compound] | <1 | <1 | <0.01 | almost no transference | *2) Converted into 173 mg/l of gluconic acid with some decomposition into other compounds. | – |
| O=C1O[C@H]([C@H](O)CO)C([O-])=C1O.[K+] [compound 15, potassium erysorbate] | – | – | – | – | – | 30.1 |

Now from value to molecule, other results behind:

| Conc. of chemical in water [1] [µg/mL] | Conc. of chemical in steam [1] [µg/mL] | Conc. ratio Cs/Cw (concentration in the steam phase/concentration in liquid water phase) ([1]; pH 11.5) | Transference from the liquid water phase to the steam phase [1] | Structure (SMILES) | Converted into gluconic acid (with some decomposition into other compounds) ([1]; liquid water phase, pH 11.5) | Rate of O2 remov. [2] [%] |
| --- | --- | --- | --- | --- | --- | --- |
| 184 | 418 | 2.27 | – | C=CCc1ccc(O)c(OC)c1 [Example 4, Eugenol] | – | – |
| 186 | 453 | 2.44 | – | CC=Cc1ccc(O)c(OC)c1 [Example 5, Isoeugenol] | – | – |

Reference: patent US6368552B1, “Water treating agent and water treating method” (Kurita Water Industries Ltd., priority 1999, dated 2002)
